{"source": "patent US11364248B2", "about": "(AMGEN INC., priority 2017, dated 2022)", "key": {"OPM-2": {"system": "OPM-2", "experiment": "Cell Viability Assay (OPM-2 10 FBS)", "type": "cell-based, human", "conditions": "OPM-2 cells, CellTiter-Glo, read-out: OPM-2 10% FBS IC50 IP", "method_in_brief": "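Compounds, serially diluted, were left on OPM-2 cells (3000 cells/well, 10% FBS RPMI 1640) for 16 h at 37° C. under 5% CO2.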"}, "Mcl-1/Bim interaction": {"target": "Mcl-1/Bim interaction (Homo sapiens (Human), UniProt Q07820)", "sequence (Q07820 171-327)": "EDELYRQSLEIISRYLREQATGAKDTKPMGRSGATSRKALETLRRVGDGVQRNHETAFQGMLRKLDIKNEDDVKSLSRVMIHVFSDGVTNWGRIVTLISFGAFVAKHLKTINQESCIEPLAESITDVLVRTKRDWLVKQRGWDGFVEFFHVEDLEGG", "experiment": "Cell Free Mcl-1: Bim Affinity Assay (Mcl-1 HTRF)", "type": "binding", "conditions": "TR-FRET, recombinant human Mcl-1(171-327), biotin-Bim(51-76); read-out: Mel-1 HTRF IC50", "experimental": "Cell Free Mcl-1: Bim Affinity Assay (Mcl-1 HTRF)\nThe inhibition of the Mcl-1/Bim interaction was measured using a time-resolved fluorescence resonance energy transfer (TR-FRET) assay. The recombinant human Mcl-1 (C-terminally 6×His tagged Mcl-1 containing residues 171-327) was generated at Amgen Inc (Thousand Oaks, Calif.). A biotinylated peptide derived from human Bim (residues 51-76) was purchased from CPC Scientific (San Jose, Calif.). The TR-FRET assay was conducted in a 384-well white OptiPlate™ (PerkinElmer, Waltham, Mass.) in a total volume of 40 μL. The reaction mixture contained 0.1 nM Mcl-1(171-327), 0.05 nM biotin-Bim(51-76), 0.05 nM LANCER Eu-W1024 Anti-6×His (PerkinElmer), 0.072 nM Streptavidin-Xlent (Cisbio, Bedford, Mass.), and serially diluted test compounds in the binding buffer of 20 mM Hepes, pH 7.5, 150 mM NaCl, 0.016 mM Brij©35, and 1 mM dithiothreitol. Test compounds were pre-incubated with Mcl-1(171-327) and biotin-Bim (51-76) for 60 min before addition of the detection mixture (LANCE Eu-W1024 Anti-6×His and Streptavidin-Xlent). The reaction plates were further incubated overnight and then were read on an Envision® multimode reader (PerkinElmer). Fluorescence signals were measured at 620 nm (40-nm bandwidth) and 665 nm (7.5-nm bandwidth) with a 60 μs delay after excitation at 320 nm (75-nm bandwidth). The signal ratio at 665/620 nm corresponded to the Mcl-1/Bim interaction and was used in all data analyses. The IC50 values of test compounds were determined from duplicate data by analyzing competition curves using a four-parameter sigmoidal model in GraphPad Prism (GraphPad Software, San Diego, Calif.) or in Genedata Screener® (Genedata, Basel, Switzerland)."}}, "note": "Read-outs that look alike come from different tables or passages of the source.", "data": [{"smiles": "C[C@@H]1[C@@H](C)CCC[C@H]([C@H]2O[C@H]3CNC[C@H]3O2)[C@@H]2CC[C@H]2CN2C[C@@]3(CCCc4cc(Cl)ccc43)COc3ccc(cc32)C(=O)NS1(=O)=O", "note": "(stereo in doubt) [Example 10, (1S,3′R,6′R,7′R,11′S,12′R)-6-chloro-11′,12′-dimethyl-7′-((2r,3aR,6aS)-tetrahydro-3aH-[1,3]dioxolo[4,5-c]pyrrol-2-yl)-3,4-dihydro-2H,15′H-spiro[naphthalene-1,22′-[20]oxa[13]thia[1,14]diazatetracyclo [14.7.2.0~3,6~.0~19,24~]pentacosa[16,18,24]trien]-15′-one 13′,13′-dioxide]", "values": [{"measurement": "IC50", "setting": "OPM-2; 16 h", "value": 1120, "unit": "nM"}, {"measurement": "IC50", "setting": "Mcl-1/Bim interaction", "value": 1.27, "unit": "nM"}]}, {"smiles": "C[C@@H]1[C@@H](C)CCC[C@H]([C@H]2O[C@H]3CNC[C@H]3O2)[C@@H]2CC[C@H]2CN2C[C@@]3(CCCc4cc(Cl)ccc43)COc3ccc(cc32)C(=O)NS1(=O)=O", "note": "(stereo in doubt) [Example 15, (1S,3′R,6′R,7′R,11′S,12′R)-6-chloro-11′,12′-dimethyl-7′-((2r,3aR,6aS)-tetrahydro-3aH-[1,3]dioxolo[4,5-c]pyrrol-2-yl)-3,4-dihydro-2H,15′H-spiro[naphthalene-1,22′-[20]oxa[13]thia[1,14]diazatetracyclo [14.7.2.0~3,6~.0~19,24~]pentacosa[16,18,24]trien]-15′-one 13′,13′-dioxide]", "values": [{"measurement": "IC50", "setting": "OPM-2; 16 h", "value": 625, "unit": "nM"}, {"measurement": "IC50", "setting": "Mcl-1/Bim interaction", "value": 0.765, "unit": "nM"}]}, {"smiles": "CC(=O)N1C[C@@H]2O[C@H]([C@H]3CCC[C@H](C)[C@@H](C)S(=O)(=O)NC(=O)c4ccc5c(c4)N(C[C@@H]4CC[C@H]43)C[C@@]3(CCCc4cc(Cl)ccc43)CO5)O[C@@H]2C1", "note": "(stereo in doubt) [Example 16, (1S,3′R,6′R,7′R,11′S,12′R)-7′-((2r,3aR,6aS)-5-acetyltetrahydro-3aH-[1,3]dioxolo[4,5-c]pyrrol-2-yl)-6-chloro-11′,12′-dimethyl-3,4-dihydro-2H,15′H-spiro[naphthalene-1,22′-[20]oxa[13]thia[1,14]diazatetracyclo [14.7.2.0~3,6~.0~19,24~]pentacosa[16,18,24]trien]-15′-one 13′,13′-dioxide]", "values": [{"measurement": "IC50", "setting": "OPM-2; Homo sapiens, OPM-2, 16 h", "value": 262, "unit": "nM"}, {"measurement": "IC50", "setting": "Mcl-1/Bim interaction", "value": 0.194, "unit": "nM"}]}, {"smiles": "C[C@@H]1[C@@H](C)CCC[C@H]([C@H]2O[C@H]3CN(C)C[C@H]3O2)[C@@H]2CC[C@H]2CN2C[C@@]3(CCCc4cc(Cl)ccc43)COc3ccc(cc32)C(=O)NS1(=O)=O", "note": "(stereo in doubt) [Example 24, (1S,3′R,6′R,7′R,11′S,12′R)-6-chloro-11′,12′-dimethyl-7′-((2r,3aR,6aS)-5-methyltetrahydro-3aH-[1,3]dioxolo[4,5-c]pyrrol-2-yl)-3,4-dihydro-2H,15′H-spiro[naphthalene-1,22′-[20]oxa[13]thia[1,14]diazatetracyclo [14.7.2.0~3,6~.0~19,24~]pentacosa[16,18,24]trien]-15′-one 13′,13′-dioxide]", "values": [{"measurement": "IC50", "setting": "OPM-2; Homo sapiens, OPM-2, 16 h", "value": 532, "unit": "nM"}, {"measurement": "IC50", "setting": "Mcl-1/Bim interaction", "value": 0.709, "unit": "nM"}]}, {"smiles": "C[C@@H]1[C@@H](C)CCC[C@H]([C@H]2O[C@H]3CNC[C@H]3O2)[C@@H]2CC[C@H]2CN2C[C@@]3(CCCc4cc(Cl)ccc43)COc3ccc(cc32)C(=O)NS1(=O)=O", "note": "(stereo in doubt) [Example 35, (1S,3′R,6′R,7′R,11′S,12′R)-6-chloro-11′,12′-dimethyl-7′-((2r,3aR,6aS)-tetrahydro-3aH-[1,3]dioxolo[4,5-c]pyrrol-2-yl)-3,4-dihydro-2H,15′H-spiro[naphthalene-1,22′-[20]oxa[13]thia[1,14]diazatetracyclo [14.7.2.0~3,6~.0~19,24~]pentacosa[16,18,24]trien]-15′-one 13′,13′-dioxide]", "values": [{"measurement": "IC50", "setting": "OPM-2; 16 h", "value": 304, "unit": "nM"}, {"measurement": "IC50", "setting": "Mcl-1/Bim interaction", "value": 0.829, "unit": "nM"}]}, {"smiles": "CC[C@@H]1CCCC[C@H]([C@H]2OC[C@@H](N(C)C)CO2)C2CC[C@H]2CN2C[C@@]3(CCCc4cc(Cl)ccc43)COc3ccc(cc32)C(=O)NS1(=O)=O", "note": "(stereo in doubt) [Example 73, (1S,3′R,6′S,7′S,12′R)-6-chloro-7′-(cis-5-(dimethylamino)-1,3-dioxan-2-yl)-12′-ethyl-3,4-dihydro-2H,15′H-spiro[naphthalene-1,22′-[20]oxa[13]thia[1,14]diazatetracyclo [14.7.2.0~3,6~.0~19,24~]pentacosa[16,18,24]trien]-15′-one 13′,13′-dioxide]", "values": [{"measurement": "IC50", "setting": "OPM-2; 16 h", "value": 915, "unit": "nM"}, {"measurement": "IC50", "setting": "Mcl-1/Bim interaction", "value": 0.657, "unit": "nM"}]}, {"smiles": "CC[C@@H]1CCCC[C@H]([C@H]2OC[C@@H](N(C)C)CO2)C2CC[C@H]2CN2C[C@@]3(CCCc4cc(Cl)ccc43)COc3ccc(cc32)C(=O)NS1(=O)=O", "note": "(stereo in doubt) [Example 74, (1S,3′R,6′S,7′S,12′R)-6-chloro-7′-(cis-5-(dimethylamino)-1,3-dioxan-2-yl)-12′-ethyl-3,4-dihydro-2H,15′H-spiro[naphthalene-1,22′-[20]oxa[13]thia[1,14]diazatetracyclo [14.7.2.0~3,6~.0~19,24~]pentacosa[16,18,24]trien]-15′-one 13′,13′-dioxide]", "values": [{"measurement": "IC50", "setting": "OPM-2; 16 h", "value": 108, "unit": "nM"}, {"measurement": "IC50", "setting": "Mcl-1/Bim interaction", "value": 0.196, "unit": "nM"}]}, {"smiles": "C[C@H]1CCC[C@H]([C@H]2OC[C@@H](N(C)C)CO2)[C@@H]2CC[C@H]2CN2C[C@@]3(CCCc4cc(Cl)ccc43)COc3ccc(cc32)C(=O)NS(=O)(=O)C1", "note": "(stereo in doubt) [Example 77]", "values": [{"measurement": "IC50", "setting": "OPM-2; Homo sapiens, OPM-2, 16 h", "value": 595, "unit": "nM"}, {"measurement": "IC50", "setting": "Mcl-1/Bim interaction", "value": 2.65, "unit": "nM"}]}, {"smiles": "C[C@H]1CCC[C@H]([C@H]2OC[C@@H](N(C)C)CO2)[C@@H]2CC[C@H]2CN2C[C@@]3(CCCc4cc(Cl)ccc43)COc3ccc(cc32)C(=O)NS(=O)(=O)C1", "note": "(stereo in doubt) [Example 78]", "values": [{"measurement": "IC50", "setting": "OPM-2; 16 h", "value": 599, "unit": "nM"}, {"measurement": "IC50", "setting": "Mcl-1/Bim interaction", "value": 2.81, "unit": "nM"}]}, {"smiles": "C[C@@H]1[C@@H](C)CCC[C@H](C2OCCO2)[C@@H]2CC[C@H]2CN2C[C@@]3(CCCc4cc(Cl)ccc43)COc3ccc(cc32)C(=O)NS1(=O)=O", "note": "[Example 3, (1S,3′R,6′R,7′S,11′S,12′R)-6-chloro-7′-(1,3-dioxolan-2-yl)-11′,12′-dimethyl-3,4-dihydro-2H,15′H-spiro[naphthalene-1,22′-[20]oxa[13]thia[1,14]diazatetracyclo [14.7.2.0~3,6~.0~19,24~]pentacosa[16,18,24]trien]-15′-one 13′,13′-dioxide]", "values": [{"measurement": "IC50", "setting": "OPM-2; 16 h", "value": 926, "unit": "nM"}, {"measurement": "IC50", "setting": "Mcl-1/Bim interaction", "value": 1.28, "unit": "nM"}]}, {"smiles": "C[C@@H]1[C@@H](C)CCC[C@H](C2OCCO2)[C@@H]2CC[C@H]2CN2C[C@@]3(CCCc4cc(Cl)ccc43)COc3ccc(cc32)C(=O)NS1(=O)=O", "note": "[Example 4, (1S,3′R,6′R,7′S,11′S,12′R)-6-chloro-7′-(1,3-dioxolan-2-yl)-11′,12′-dimethyl-3,4-dihydro-2H,15′H-spiro[naphthalene-1,22′-[20]oxa[13]thia[1,14]diazatetracyclo [14.7.2.0~3,6~.0~19,24~]pentacosa[16,18,24]trien]-15′-one 13′,13′-dioxide]", "values": [{"measurement": "IC50", "setting": "OPM-2; 16 h", "value": 2150, "unit": "nM"}, {"measurement": "IC50", "setting": "Mcl-1/Bim interaction", "value": 1.92, "unit": "nM"}]}, {"smiles": "C[C@@H]1[C@@H](C)CCC[C@H](C2OCCCO2)[C@@H]2CC[C@H]2CN2C[C@@]3(CCCc4cc(Cl)ccc43)COc3ccc(cc32)C(=O)NS1(=O)=O", "note": "[Example 7, (1S,3′R,6′R,7′S,11′S,12′R)-6-chloro-7′-(1,3-dioxan-2-yl)-11′,12′-dimethyl-3,4-dihydro-2H,15′H-spiro[naphthalene-1,22′-[20]oxa[13]thia[1,14]diazatetracyclo [14.7.2.0~3,6~.0~19,24~]pentacosa[16,18,24]trien]-15′-one 13′,13′-dioxide]", "values": [{"measurement": "IC50", "setting": "OPM-2; 16 h", "value": 1070, "unit": "nM"}, {"measurement": "IC50", "setting": "Mcl-1/Bim interaction", "value": 0.949, "unit": "nM"}]}, {"smiles": "C[C@@H]1[C@@H](C)CCC[C@H](C2OCCCO2)[C@@H]2CC[C@H]2CN2C[C@@]3(CCCc4cc(Cl)ccc43)COc3ccc(cc32)C(=O)NS1(=O)=O", "note": "[Example 8, (1S,3′R,6′R,7′S,11′S,12′R)-6-chloro-7′-(1,3-dioxan-2-yl)-11′,12′-dimethyl-3,4-dihydro-2H,15′H-spiro[naphthalene-1,22′-[20]oxa[13]thia[1,14]diazatetracyclo [14.7.2.0~3,6~.0~19,24~]pentacosa[16,18,24]trien]-15′-one 13′,13′-dioxide]", "values": [{"measurement": "IC50", "setting": "OPM-2; 16 h", "value": 7360, "unit": "nM"}, {"measurement": "IC50", "setting": "Mcl-1/Bim interaction", "value": 1.67, "unit": "nM"}]}, {"smiles": "C[C@@H]1[C@@H](C)CCC[C@H]([C@H]2OC[C@H](O)CO2)[C@@H]2CC[C@H]2CN2C[C@@]3(CCCc4cc(Cl)ccc43)COc3ccc(cc32)C(=O)NS1(=O)=O", "note": "[Example 11, (1S,3′R,6′R,7′S,11′S,12′R)-6-chloro-7′-(trans-5-hydroxy-1,3-dioxan-2-yl)-11′,12′-dimethyl-3,4-dihydro-2H,15′H-spiro[naphthalene-1,22′-[20]oxa[13]thia[1,14]diazatetracyclo [14.7.2.0~3,6~.0~19,24~]pentacosa[16,18,24]trien]-15′-one 13′,13′-dioxide]", "values": [{"measurement": "IC50", "setting": "OPM-2; 16 h", "value": 260, "unit": "nM"}, {"measurement": "IC50", "setting": "Mcl-1/Bim interaction", "value": 0.29, "unit": "nM"}]}]}
